Measured values: US20210275596A1, “APPLICATION OF GENE PROFILE FOR CELLS ISOLATED USING FRESH-TRACER” (CELL2IN, INC., priority 2018, published 2021)

Key:
Type in all cases: cell-based, human
HeLa cells [1] = experiment: FR monitoring in cells loaded with FreSH-tracer; conditions: for change of FR: HeLa cells equilibrated with 5 μM FreSH-tracer for 2 hours
Method: To utilize a FreSH-tracer for GSH monitoring in living cells, its cytotoxicity was evaluated. […] HeLa cells were equilibrated with treatment of 5 μM FreSH-tracer for 2 hours. […] The FR in the nucleus was about 1.5- to 2-fold higher than that of the cytoplasm.
The in vitro experiments described above established that H2O2 treatment diminishes only the FRGSH, while having little effect on the FRPSH. […] Thus, the FreSH-tracer can report the real-time dynamic changes of GSH concentration in live cells under oxidative stress.

HeLa cells [2] = experiment: Mitochondrial FR monitoring with MitoFreSH-tracer
From the text: The mitochondrion is the major site of endogenous ROS generation during normal oxidative metabolism. Cytosolic GSH is transported to the mitochondria, preventing macromolecular damage and modulating ROS-induced signaling. To further analyze the FR heterogeneity in the cytoplasm, a mitochondria-targeting FreSH-tracer derivative, designated MitoFreSH-tracer was synthesized by attaching a triphenylphosphonium moiety to a FreSH-tracer.

hES-MSCs [3] = experiment: GSH depletion or supplementation: clonogenic and migration capacities
hES-MSCs [4] = experiment: Chemotaxis to PDGF-AA; conditions: for effect on chemoattraction to PDGF: naive hES-MSCs
Method: FIGS. 4A, 4B, 4C and 4D are graphs showing analyses of colony-forming unit fibroblasts (CFU-F; n=15), limiting dilution by replating primary CFU colonies (n=6), chemotaxis to stromal derived factor-1α (SDFα; 150 ng/mL, n=8), and chemotaxis to 10 ng/mL platelet-derived growth factor (PDGF)-AA in the absence or presence of STI571 (0.5 μg/mL), a PDGFR inhibitor (n=8).
At this time, for differentiation media, the cells were maintained and cultured in each of adipogenic induction medium (DMEM supplemented with 5% FBS, […], […], […] and 0.5 mM isobutylmethylxanthine), osteogenic induction medium (DMEM supplemented with 5% FBS, […], […], and 10 mM glycerophosphate), and chondrogenic induction medium (e.g., StemPro chondrogenesis, Invitrogen). FIG. 3 is a graph showing the results of qPCR performed to quantify lineage-specific genes in non-differentiated(Non) FR^High cells and FR^Low cells and differentiated(Diff) FR^High cells and FR^Low cells. Additionally, FR^High hES-MSCs had approximately 4.7- and 4.9-fold higher numbers of CFU-F than did FR^Mild and FR^Low cells, respectively (FIG. 4A).

CN(C)C(=O)/N=N/C(=O)N(C)C [diamide]
change of FR (HeLa cells [1]): gradually decreased | change of mitochondrial FR (HeLa cells [2]): decreased

CCN1C(=O)C=CC1=O [NEM]
change of FR (HeLa cells [1]): gradually decreased

O[C@@H](CS)[C@@H](O)CS [DTT]
change of FR (HeLa cells [1]): rapidly increased

O=[N+]([O-])c1ccc(Cl)c([N+](=O)[O-])c1 [1-chloro-2,4-dinitrobenzene]
restoring of FR after diamide (HeLa cells [1]; GSH-depleted HeLa cells): abrogated

CCCCS(=N)(=O)CCC(N)C(=O)O (centres unmarked) [BSO, buthionine sulfoximine]
effect on enhanced clonogenic and migration capacities and related gene upregulation (hES-MSCs [3]; FR^High hES-MSCs): severely impaired | effect on chemoattraction to PDGF (hES-MSCs [4]): significant repression

Cc1ccc(NC(=O)c2ccc(CN3CCN(C)CC3)cc2)cc1Nc1nccc(-c2cccnc2)n1 [STI571]
effect on PDGF chemotactic activity of FR^High cells (hES-MSCs [4]; STI571 0.5 μg/mL, 10 ng/mL PDGF-AA): significantly blocked

CCOC(=O)CNC(=O)[C@H](CS)NC(=O)CC[C@H](N)C(=O)O [GSH-EE, glutathione ethyl ester]
effect on declined cellular functions (hES-MSCs [3]; FR^Low hES-MSCs): reversed | effect on chemoattraction to PDGF (hES-MSCs [4]): activation

antimycin A
change of mitochondrial FR (HeLa cells [2]): concentration-dependent decrease
